Test results published in PMC10934235, “Inhibitory Effects of the Polyphenols from the Root of Rhizophora apiculata Blume on Fatty Acid Synthase Activity and Human Colon Cancer Cells” (Molecules, 2024).
≈ marks a conversion by molar mass, not a printed value. Like-named read-outs stand apart in the source and are kept apart here. Blank lines part the entries; values can stand above or below the molecule they belong to.

Legend:
chicken liver FAS [1] = target: T1, chicken liver FAS (Gallus gallus, UniProt P12276); test: FAS overall reaction, fast-binding inhibition (NADPH decrease at 340 nm); assay type: biochemical
T1 construct: The purification, storage, and application of the chicken liver FAS were conducted following established procedures; from tissue; host or cells: chicken liver (chickens from Huadu Broiler Corporation, Beijing)
T1 sequence (P12276 whole entry): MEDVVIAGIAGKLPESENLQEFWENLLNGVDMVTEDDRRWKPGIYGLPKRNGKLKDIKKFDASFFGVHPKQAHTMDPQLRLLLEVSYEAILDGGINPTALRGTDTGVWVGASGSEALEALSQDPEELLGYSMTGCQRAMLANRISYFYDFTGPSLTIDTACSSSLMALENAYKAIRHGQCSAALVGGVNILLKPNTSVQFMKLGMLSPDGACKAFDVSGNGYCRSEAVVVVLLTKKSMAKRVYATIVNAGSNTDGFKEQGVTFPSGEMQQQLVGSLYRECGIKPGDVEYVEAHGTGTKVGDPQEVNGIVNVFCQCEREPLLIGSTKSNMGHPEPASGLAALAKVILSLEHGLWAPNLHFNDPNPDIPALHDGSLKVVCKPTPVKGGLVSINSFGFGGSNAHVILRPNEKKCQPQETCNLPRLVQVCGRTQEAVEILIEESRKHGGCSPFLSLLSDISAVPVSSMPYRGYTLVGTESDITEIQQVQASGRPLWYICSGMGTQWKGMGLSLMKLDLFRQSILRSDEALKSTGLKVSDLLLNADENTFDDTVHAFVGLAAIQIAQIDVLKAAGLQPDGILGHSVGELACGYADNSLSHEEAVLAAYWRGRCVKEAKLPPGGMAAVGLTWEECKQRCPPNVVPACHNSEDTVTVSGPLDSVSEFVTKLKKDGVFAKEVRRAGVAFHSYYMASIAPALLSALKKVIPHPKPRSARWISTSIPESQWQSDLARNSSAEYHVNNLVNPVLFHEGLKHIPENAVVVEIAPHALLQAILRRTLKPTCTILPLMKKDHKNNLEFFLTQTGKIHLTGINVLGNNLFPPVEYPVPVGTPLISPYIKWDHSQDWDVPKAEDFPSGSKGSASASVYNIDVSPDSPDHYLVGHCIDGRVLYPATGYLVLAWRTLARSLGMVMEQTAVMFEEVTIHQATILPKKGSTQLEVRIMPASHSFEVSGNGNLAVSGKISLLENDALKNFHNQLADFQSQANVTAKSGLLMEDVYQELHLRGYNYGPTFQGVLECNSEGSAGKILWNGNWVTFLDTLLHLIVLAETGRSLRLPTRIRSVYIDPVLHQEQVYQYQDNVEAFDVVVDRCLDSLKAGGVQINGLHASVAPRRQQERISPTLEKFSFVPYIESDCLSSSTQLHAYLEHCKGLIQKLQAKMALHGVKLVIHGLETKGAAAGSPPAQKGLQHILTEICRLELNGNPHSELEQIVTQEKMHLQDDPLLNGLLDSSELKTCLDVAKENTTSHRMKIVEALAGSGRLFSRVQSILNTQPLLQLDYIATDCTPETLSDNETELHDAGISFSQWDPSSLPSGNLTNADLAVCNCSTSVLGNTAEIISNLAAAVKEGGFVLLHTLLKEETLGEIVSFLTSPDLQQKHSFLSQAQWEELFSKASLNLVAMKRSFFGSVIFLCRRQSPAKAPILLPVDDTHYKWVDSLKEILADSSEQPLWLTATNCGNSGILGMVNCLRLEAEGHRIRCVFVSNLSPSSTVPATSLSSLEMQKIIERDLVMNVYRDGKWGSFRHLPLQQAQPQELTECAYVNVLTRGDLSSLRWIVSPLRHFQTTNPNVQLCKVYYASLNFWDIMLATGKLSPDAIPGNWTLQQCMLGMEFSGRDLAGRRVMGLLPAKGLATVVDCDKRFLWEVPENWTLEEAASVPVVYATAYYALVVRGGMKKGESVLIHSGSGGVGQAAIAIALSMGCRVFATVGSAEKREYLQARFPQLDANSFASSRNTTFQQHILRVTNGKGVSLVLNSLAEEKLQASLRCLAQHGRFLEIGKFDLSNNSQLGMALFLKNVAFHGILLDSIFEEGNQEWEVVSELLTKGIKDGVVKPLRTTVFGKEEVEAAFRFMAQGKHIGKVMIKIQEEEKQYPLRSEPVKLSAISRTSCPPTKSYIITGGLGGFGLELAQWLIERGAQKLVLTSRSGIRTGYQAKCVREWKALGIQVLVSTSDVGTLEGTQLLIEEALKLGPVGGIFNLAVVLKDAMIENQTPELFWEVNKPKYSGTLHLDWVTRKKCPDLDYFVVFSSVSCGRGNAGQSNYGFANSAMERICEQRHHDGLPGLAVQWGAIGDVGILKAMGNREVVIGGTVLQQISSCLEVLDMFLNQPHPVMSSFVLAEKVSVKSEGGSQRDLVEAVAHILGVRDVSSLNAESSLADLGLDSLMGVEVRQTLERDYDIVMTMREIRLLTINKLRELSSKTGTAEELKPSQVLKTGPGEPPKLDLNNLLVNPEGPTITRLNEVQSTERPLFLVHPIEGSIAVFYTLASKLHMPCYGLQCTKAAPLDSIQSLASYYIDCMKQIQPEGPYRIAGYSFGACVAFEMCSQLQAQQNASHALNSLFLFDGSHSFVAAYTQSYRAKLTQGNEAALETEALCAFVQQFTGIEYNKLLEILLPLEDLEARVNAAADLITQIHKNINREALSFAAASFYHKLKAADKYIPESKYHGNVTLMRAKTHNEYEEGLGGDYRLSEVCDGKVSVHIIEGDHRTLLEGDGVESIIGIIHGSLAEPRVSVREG
Protocol: (§1) The FAS employed in this study was sourced from chicken liver, given that the amino acid sequence of chicken FAS shares 63% identity with its human counterpart. The chickens were purchased from Huadu Broiler Corporation, Beijing, China. The purification, storage, and application of the chicken liver FAS were conducted following established procedures. Animal procedures adhered to the Guidelines for the Care and Use of Laboratory Animals as set forth by the Beijing Association for Laboratory Animal Science. […] Concentrations of the enzyme and substrates were determined through absorption measurements, with extinction coefficients being utilized as previously outlined.
(§2) The overall reaction of FAS and the β-ketoacyl reduction facilitated by KR (a functional domain of FAS) were assessed using an Amersham Pharmacia Ultrospec 4300 pro UV-Vis spectrophotometer (GE Healthcare China Company, Beijing, China) at 37 °C by monitoring the decrease of NADPH at 340 nm. The overall reaction mixture comprised potassium phosphate buffer (100 mM, pH 7.0), ethylenediaminetetraacetic acid (EDTA) (1 mM), 1,4-dithiothreitol (DTT) (1 mM), acetyl-CoA (6 µM), malonyl-CoA (12 µM), NADPH (37.5 µM), and chicken liver FAS (10 µg), with a total volume of 2.0 mL. For the KR reaction, the mixture included ethyl acetoacetate (40 mM), NADPH (35 µM), 1 mM of EDTA, and the enzyme (15 µg) in 100 mM of phosphate buffer at pH 7.0, with a total volume of 2.0 mL [41].
(§3) The extent of inhibition was quantified by determining the IC50 value through a plot of residual activity against varying inhibitor concentrations.

[2] = target: T2, KR (a functional domain of FAS) (Gallus gallus, UniProt P12276); test: KR reaction of FAS, fast-binding inhibition (ethyl acetoacetate, NADPH); assay type: biochemical, chicken
T2 construct: The purification, storage, and application of the chicken liver FAS were conducted following established procedures; from tissue; host or cells: chicken liver (chickens from Huadu Broiler Corporation, Beijing)
T2 sequence (P12276 whole entry, the tested form may be a part): as the sequence (P12276 whole entry) above
Protocol: as §1
as §2, with “For the KR reaction, the mixture included ethyl acetoacetate (40 mM), NADPH (35 µM), 1 mM of EDTA, and the enzyme (15 µg) in 100 mM of phosphate buffer at pH 7.0, with a total volume of 2.0 mL [41].” left out
as §3

[3] = target: T2, KR (a functional domain of FAS); test: Enzyme kinetics study, KR reaction of FAS (double reciprocal plots); assay type: biochemical, chicken; conditions: NADPH variable substrate, LR 0-15.0 μg/mL
Protocol: as §2
(§4) Double reciprocal plots were generated for each inhibitor concentration to determine the competitive relationship between the variable substrate and inhibitor concentrations. This study focused on examining fast-binding inhibition.

chicken liver FAS [4] = target: T1, chicken liver FAS; test: Enzyme kinetics study, FAS overall reaction (double reciprocal plots); assay type: biochemical; conditions: LR 0-15.0 μg/mL
Protocol: as §2, §4

LoVo cells = test: Cell viability, MTT assay; assay type: cell-based, human; conditions: 24 h
Excerpt: (§5) The human colon cancer cell lines CaCo2, LoVo, and SW620 were purchased from the Type Culture Collection of the Chinese Academy of Sciences (Shanghai, China). The CaCo2 cell line, originating from a human colon adenocarcinoma isolated in the 1970s, undergoes processes of proliferation, confluency, and differentiation during growth. […] LoVo, another cell line isolated in 1971 from the large intestine of a person with grade IV Dukes C colorectal cancer, offers applications in cancer, toxicology, and immuno-oncology research. SW620 cells, obtained from the large intestine of a person Dukes C colorectal cancer patient, are valuable resources for cancer and toxicology investigations. Cells were grown in Dulbecco’s Modified Eagle Medium (DMEM) supplemented with 10% fetal bovine serum (FBS) and were maintained in a humidified atmosphere containing 95% air and 5% CO2 at 37 °C.
(§6) LR was examined to evaluate its inhibition on the proliferation of CaCo2, LoVo, and SW620 cells. CaCo2, LoVo, and SW620 cells were grown in 96-well plates until reaching confluence and were treated with either DMSO (1:1000) or increasing doses of LR for 24 h at 37 °C. Following this, the cell medium was replaced with fresh medium containing 500 µg/mL MTT. After a 4-h incubation at 37 °C, the plates were decanted, and 150 µL of DMSO was added to dissolve the formazan crystals. Subsequently, the plate was analyzed using a microplate spectrophotometer (Multiskan, MK3) (Thermo Fisher Scientific Inc., Waltham, MA, USA) at a wavelength of 492 nm. Each experiment was conducted five times on three separate occasions.

SW620 cells = test: Cell viability, MTT assay; assay type: cell-based, human
Excerpt: as §5, §6

CaCo2 cells = test: Cell viability, MTT assay; assay type: cell-based, human
Excerpt: as §5, §6

[5] = target: T3, intracellular FAS activity in LoVo cells (Homo sapiens, UniProt P49327); test: Intracellular FAS activity assay; assay type: cell-based
T3 construct: the cells were sonicated at 4 °C and centrifuged at 12,000 rpm for 15 min at 4 °C to obtain particle-free supernatants; endogenous in cells; host or cells: CaCo2, LoVo, SW620
T3 sequence (P49327 whole entry): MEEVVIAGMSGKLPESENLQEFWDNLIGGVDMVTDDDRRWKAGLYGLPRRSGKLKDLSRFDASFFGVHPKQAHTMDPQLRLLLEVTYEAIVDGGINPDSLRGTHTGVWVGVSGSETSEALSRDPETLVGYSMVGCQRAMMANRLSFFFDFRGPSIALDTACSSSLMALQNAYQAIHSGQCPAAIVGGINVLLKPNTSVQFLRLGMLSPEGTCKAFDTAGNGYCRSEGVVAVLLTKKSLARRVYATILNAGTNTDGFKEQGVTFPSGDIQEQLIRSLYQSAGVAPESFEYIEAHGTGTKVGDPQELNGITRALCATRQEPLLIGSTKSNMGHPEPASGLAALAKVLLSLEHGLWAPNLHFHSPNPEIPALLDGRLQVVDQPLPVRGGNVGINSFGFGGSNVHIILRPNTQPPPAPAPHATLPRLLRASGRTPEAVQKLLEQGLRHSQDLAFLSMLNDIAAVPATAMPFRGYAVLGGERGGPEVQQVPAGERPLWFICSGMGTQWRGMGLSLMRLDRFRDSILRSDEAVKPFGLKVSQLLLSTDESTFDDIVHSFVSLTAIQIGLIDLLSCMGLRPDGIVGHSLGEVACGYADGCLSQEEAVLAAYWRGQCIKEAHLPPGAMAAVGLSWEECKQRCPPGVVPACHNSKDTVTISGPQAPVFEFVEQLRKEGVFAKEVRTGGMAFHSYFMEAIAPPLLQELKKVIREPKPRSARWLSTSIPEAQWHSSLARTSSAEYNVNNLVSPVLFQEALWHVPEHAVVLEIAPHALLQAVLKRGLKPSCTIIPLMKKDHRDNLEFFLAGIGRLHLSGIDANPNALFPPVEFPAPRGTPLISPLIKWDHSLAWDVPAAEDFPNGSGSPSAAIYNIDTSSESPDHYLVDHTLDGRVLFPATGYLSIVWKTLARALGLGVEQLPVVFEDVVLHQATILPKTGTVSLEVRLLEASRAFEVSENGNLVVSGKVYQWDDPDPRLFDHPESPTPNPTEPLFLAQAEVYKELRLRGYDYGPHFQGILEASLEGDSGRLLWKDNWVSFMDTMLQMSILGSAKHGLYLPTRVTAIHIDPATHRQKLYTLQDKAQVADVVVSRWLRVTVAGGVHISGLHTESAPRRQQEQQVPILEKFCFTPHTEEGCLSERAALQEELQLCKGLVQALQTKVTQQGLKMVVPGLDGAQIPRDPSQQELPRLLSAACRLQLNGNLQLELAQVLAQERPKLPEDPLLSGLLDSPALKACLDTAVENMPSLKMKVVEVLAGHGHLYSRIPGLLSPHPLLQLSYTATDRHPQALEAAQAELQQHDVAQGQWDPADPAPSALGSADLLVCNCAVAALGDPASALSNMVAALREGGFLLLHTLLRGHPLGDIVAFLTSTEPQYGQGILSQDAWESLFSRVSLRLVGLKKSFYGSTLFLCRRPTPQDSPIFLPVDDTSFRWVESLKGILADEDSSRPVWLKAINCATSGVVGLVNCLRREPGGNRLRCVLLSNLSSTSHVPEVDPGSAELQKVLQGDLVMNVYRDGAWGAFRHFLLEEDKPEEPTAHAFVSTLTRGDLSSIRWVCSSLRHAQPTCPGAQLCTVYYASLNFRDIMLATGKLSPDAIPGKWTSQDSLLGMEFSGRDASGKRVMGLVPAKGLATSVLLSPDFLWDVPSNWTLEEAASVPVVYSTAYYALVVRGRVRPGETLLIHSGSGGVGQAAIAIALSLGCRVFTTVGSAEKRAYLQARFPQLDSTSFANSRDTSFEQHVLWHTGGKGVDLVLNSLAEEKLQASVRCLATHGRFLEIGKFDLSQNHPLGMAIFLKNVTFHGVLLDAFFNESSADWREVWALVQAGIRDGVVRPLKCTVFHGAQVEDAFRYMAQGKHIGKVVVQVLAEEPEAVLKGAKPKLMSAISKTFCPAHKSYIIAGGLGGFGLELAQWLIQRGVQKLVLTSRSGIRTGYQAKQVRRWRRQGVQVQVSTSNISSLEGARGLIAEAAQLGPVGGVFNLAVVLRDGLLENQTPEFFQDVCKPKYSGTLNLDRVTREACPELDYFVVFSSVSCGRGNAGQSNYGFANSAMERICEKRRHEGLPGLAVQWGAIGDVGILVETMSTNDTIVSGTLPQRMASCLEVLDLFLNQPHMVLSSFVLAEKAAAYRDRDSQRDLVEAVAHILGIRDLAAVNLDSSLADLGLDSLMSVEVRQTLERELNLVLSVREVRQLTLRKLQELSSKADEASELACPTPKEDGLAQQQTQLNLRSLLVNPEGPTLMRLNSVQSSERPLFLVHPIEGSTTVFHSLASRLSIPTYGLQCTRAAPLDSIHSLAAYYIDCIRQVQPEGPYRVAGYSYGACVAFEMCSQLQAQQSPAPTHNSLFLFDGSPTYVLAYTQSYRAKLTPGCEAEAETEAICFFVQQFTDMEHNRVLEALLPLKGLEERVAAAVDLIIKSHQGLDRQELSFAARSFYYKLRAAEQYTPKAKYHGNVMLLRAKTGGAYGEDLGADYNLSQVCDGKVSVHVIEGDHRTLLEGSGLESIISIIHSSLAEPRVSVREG
Excerpt: as §5
(§7) Cells were exposed to LR for 24 h, followed by collection through trypsinization, centrifugation, triple washing, and resuspension in cold PBS. Subsequently, the cells were sonicated at 4 °C and centrifuged at 12,000 rpm for 15 min at 4 °C to obtain particle-free supernatants. The intracellular FAS activity was assessed spectrophotometrically by measuring the reduction in absorbance at 340 nm due to the oxidation of NADPH. A total volume of 500 µL of buffer comprising 50 µL of particle-free supernatant, 25 mM of KH2PO4-K2HPO4 buffer, 0.25 mM of EDTA, 0.25 mM of dithiothreitol, 30 µM of acetyl-CoA, and 350 µM of NADPH (pH 7.0) was monitored at 340 nm for 1 min to establish baseline NADPH oxidation. Following the addition of […] of malonyl-CoA, the reaction was further monitored for 1 min to determine FAS-dependent NADPH oxidation.

[6] = target: T4, intracellular FAS activity in CaCo2 cells (Homo sapiens, UniProt P49327); test: Intracellular FAS activity assay; assay type: cell-based; conditions: LR 60 µg/mL, 24 h
T4 construct: the cells were sonicated at 4 °C and centrifuged at 12,000 rpm for 15 min at 4 °C to obtain particle-free supernatants; endogenous in cells; host or cells: CaCo2, LoVo, SW620
T4 sequence (P49327 whole entry): as above
Excerpt: as §5, §7

[7] = target: T5, intracellular FAS activity in SW620 cells (Homo sapiens, UniProt P49327); test: Intracellular FAS activity assay; assay type: cell-based
T5 construct: the cells were sonicated at 4 °C and centrifuged at 12,000 rpm for 15 min at 4 °C to obtain particle-free supernatants; endogenous in cells; host or cells: CaCo2, LoVo, SW620
T5 sequence (P49327 whole entry): as above
Excerpt: as §5, §7

[8] = fast-binding inhibition, 37 °C, mean ± SD, three experiments
[9] = fast-binding inhibition, 37 °C, mean ± SD, three experiments, read-out: FAS Inhibitory Activity IC50 (converted)
[10] = LR 25 μg/mL + palmitic acid 100 μM, 24 h, versus LR alone

IC50 (chicken liver FAS [1]; [9]): > 476 µM
Structure (SMILES): CC1OC(OC2Cc3c(O)cc(O)cc3OC2c2ccc(O)cc2)C(O)C(O)C1O (stereo not shown) [AR, afzelechin-3-rhamnopyranoside]
FAS Inhibitory Activity IC50 (chicken liver FAS [1]; [8]): did not show a significant inhibitory effect

Structure (SMILES): O=C(O[C@@H]1Cc2c(O)cc(O)cc2O[C@@H]1c1cc(O)c(O)c(O)c1)c1cc(O)c(O)c(O)c1 [EGCG, epigallocatechin gallate, reference compound]
FAS Inhibitory Activity IC50 (chicken liver FAS [1]; [8]): 24.8 ± 2.2 µg/mL

IC50 (chicken liver FAS [1]; [9]): > 362 µM
Structure (SMILES): COc1cc(C2c3c(cc(OC)c(O)c3OC)CC(CO)C2COC2OCC(O)C(O)C2O)cc(OC)c1O (stereo not drawn) [LA, lyoniresinol-3α-O-β-arabinopyranoside]
FAS Inhibitory Activity IC50 (chicken liver FAS [1]; [8]): did not show a significant inhibitory effect

IC50 [2]: 56.3 µM
Type of inhibition with respect to NADPH [3]: competitively
Type of inhibition with respect to acetyl-CoA (chicken liver FAS [4]; acetyl-CoA variable substrate): competitively
Type of inhibition with respect to malonyl-CoA (chicken liver FAS [4]; malonyl-CoA variable substrate): noncompetitively
IC50 (LoVo cells; Homo sapiens, MTT): 24.9 µg/mL (≈ 43.9 µM)
IC50 (SW620 cells; Homo sapiens, SW-620, 24 h, MTT): 22.1 µg/mL (≈ 39 µM)
IC50 (CaCo2 cells; Homo sapiens, Caco-2, 24 h, MTT): 28.4 µg/mL (≈ 50.1 µM)
IC50 ([5]; 24 h treatment): 45 µM
Relative FAS activity ([5]; LR 60 µg/mL, 24 h): under 20%
Relative FAS activity [6]: under 20%
IC50 ([7]; 24 h treatment): 38.5 µM
Relative FAS activity ([7]; LR 60 µg/mL, 24 h): under 20%
IC50 (chicken liver FAS [1]; [9]): 35.5 µM
IC50 (chicken liver FAS [1]; same value as 20.1 µg/mL given in molar unit, read-out: FAS inhibition IC50): 35.5 µM
Structure (SMILES): COc1cc(C2c3c(cc(OC)c(O)c3OC)CC(CO)C2COC2OC(C)C(O)C(O)C2O)cc(OC)c1O (stereo not drawn) [LR, lyoniresinol-3α-O-β-rhamnopyranoside]
Cell viability with exogenous palmitic acid (rescue) (LoVo cells; LR 25 μg/mL + palmitic acid 100 μM, versus LR alone): restored significantly
Cell viability with exogenous palmitic acid (rescue) (SW620 cells; [10]): restored significantly
Cell viability with exogenous palmitic acid (rescue) (CaCo2 cells; [10]): restored significantly
